Where two headings read alike, the source gives them in different places.
Legend:
human Granzyme B (hGzmB) = target: T1, human Granzyme B (hGzmB) (Homo sapiens, UniProt P10144); experiment: Human Granzyme B enzymatic inhibition assay (fluorogenic, kinetic); type: biochemical; details: activity codes, Table 7; read-out: IC50 Activity Range
T1 construct: purchased Froelich Lab, Northshore University Health Systems Research Institute, Evanston, Ill., USA
Outline: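 Human Granzyme B preincubated with compound for 30 min total (5 min shaking, 20 min bench, then reaction temperature). Fluorogenic substrate added and read kinetically, 25 cycles at 1-min intervals. Percent inhibition at one or two concentrations or 8–12-point 3-fold dose response from 20 uM, replicates, with IC50 by non-linear regression.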

[1] = Kinetic solubility determination in PBS; type: physicochemical; details: PBS 1X pH 7.4, 2.0% DMSO, 24 hour incubation at ambient temperature; for solubility at 24 h: phosphate buffered saline (PBS 1×), 21 °C, pH 7.4, aqueous buffer, kinetic from dmso stock
Protocol: Kinetic solubility buffer (phosphate buffered saline (PBS, 1×) at pH 7.4) was prepared from PBS (10×) solution, (Fisher Scientific, Pittsburgh, Pa., USA, 10×), by adding PBS (50 mL, 10×) to approximately water (450 mL HPLC grade). The volume of the solution was then adjusted to 500 mL for a total dilution factor of 1:10 and a final PBS concentration of 1×. The pH of the final solution (PBS (1×)) was measured and found to be 7.4.
A DMSO stock solution (typically 10 mM or greater) was used for each compound to be tested. A final DMSO concentration of 2.0% and maximum theoretical compound concentration of typically 200 μM (or greater) was achieved by diluting an aliquot (6 μl) of each stock with kinetic solubility buffer (294 μl, PBS (1×) at pH 7.4) using a liquid handling system (Hamilton STARlet, Hamilton Robotics, Inc., Reno, Nev., USA) and incubated directly in a solubility filter plate (Millipore, Billerica, Mass., USA). Following 24 hour incubation at ambient temperature (20.5-21.7° C.), each sample was vacuum filtered. The filtrate was injected into the chemiluminescent nitrogen detector for quantification (Automated Discovery Workstation, Analiza, Inc., Cleveland, Ohio, USA). Each result was reported both in μM and μg/mL units. Three separate on-board performance indicating standards were assayed in triplicate with each test compound to ensure test results were within the acceptable range.
The equimolar nitrogen response of the detector was calibrated using standards which spanned the dynamic range of the instrument from 0.08 to 4500 μg/ml nitrogen. Each filtrate was quantified with respect to this calibration curve. Each calculated solubility value was corrected for background nitrogen present in the DMSO, and buffer used to prepare each sample. All reported values for samples containing adjacent nitrogen atoms in a ring structure were corrected for the expected non-equimolar response. Each calculated solubility result assumed that each sample was free of nitrogen containing impurities and was stable under the assay conditions. Analyses were performed at Analiza Inc. (Cleveland, Ohio, USA) by published methods (Bhattachar, S. N., et al, J. Pharma. BioMed Anal. 41:152-7 2006).

[2] = read-out: Solubility in aqueous PBS Buffer (1X, pH 7.4)
[3] = read-out: Solubility in aqueous PBS Buffer (1X, pH 7.4), ug/mL

T1 sequence (P10144 21-247): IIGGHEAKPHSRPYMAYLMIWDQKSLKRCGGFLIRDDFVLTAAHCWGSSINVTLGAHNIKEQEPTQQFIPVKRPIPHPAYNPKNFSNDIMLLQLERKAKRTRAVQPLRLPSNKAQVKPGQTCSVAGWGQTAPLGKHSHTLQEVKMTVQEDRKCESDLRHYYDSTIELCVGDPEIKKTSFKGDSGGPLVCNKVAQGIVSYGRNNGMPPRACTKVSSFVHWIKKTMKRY

SMILES | IC50 (human Granzyme B (hGzmB)) [nM] | solubility at 24 h [1, 2] [µM] | solubility at 24 h [1, 3] [µg/mL] | Solubility in aqueous PBS Buffer (1X, pH 7.4), uM [1] [uM] | Solubility in aqueous PBS Buffer (1X, pH 7.4), ug/mL [1] [ug/mL]
CC[C@H](C)[C@H](NC(=O)C1CCCCC1C(=O)O)C(=O)NCC(=O)N1c2ccccc2C[C@H]1C(=O)NCc1nn[nH]n1 (single isomer, unassigned) [Example A20-1] | < 100 | 535 | 358 |  | 
CC[C@H](C)[C@H](NC(=O)C1CCCCC1C(=O)O)C(=O)NCC(=O)N1c2ccccc2C[C@H]1C(=O)NCc1nn[nH]n1 (single isomer, unassigned) [Example A20-2] | < 100 |  |  | 641 | 429
CC[C@H](C)[C@H](NC(=O)C1CC=CCC1C(=O)O)C(=O)NCC(=O)N1c2ccccc2C[C@H]1C(=O)NCc1nn[nH]n1 (single isomer, unassigned) [Example A21-1] | < 100 | > 750 | > 425 |  | 
CC[C@H](C)[C@H](NC(=O)C1CCCC1C(=O)O)C(=O)NCC(=O)N1c2ccccc2C[C@H]1C(=O)NCc1nn[nH]n1 (single isomer, unassigned) [Example A22-1] | < 100 | > 750 | > 416 |  | 
CC[C@H](C)[C@H](NC(=O)C1CCCC1C(=O)O)C(=O)NCC(=O)N1c2ccccc2C[C@H]1C(=O)NCc1nn[nH]n1 (single isomer, unassigned) [Example A22-2] | < 100 |  |  | >750 | >416
CC[C@H](C)[C@H](NC(=O)C1CCCCC1C(=O)O)C(=O)NCC(=O)N1c2ccccc2C[C@H]1C(=O)NCc1nn[nH]n1 (single isomer, unassigned) [Example A23-1] | < 100 |  |  | >750 | >426
CC[C@H](C)[C@H](NC(=O)C1CCCCC1C(=O)O)C(=O)NCC(=O)N1c2ccccc2C[C@H]1C(=O)NCc1nn[nH]n1 (single isomer, unassigned) [Example A23-2] | < 100 |  |  | 679 | 386
CC[C@H](C)[C@H](NC(=O)Cc1nn[nH]n1)C(=O)NCC(=O)N1c2ccccc2C[C@H]1C(=O)NCc1c[nH]nn1 [Example C39, (2S)-1-{2-[(2S,3S)-3-Methyl-2-[2-(2H-1,2,3,4-Tetrazol-5-Yl)Acetamido]Pentanamido]Acetyl}-N-(1H-1,2,3-Triazol-4-Ylmethyl)-2,3-Dihydro-1H-Indole-2-Carboxamide] | < 100 |  |  |  | 
CC[C@H](C)[C@H](NC(=O)OC(C)(C)C)C(=O)NCC(=O)N1c2ccccc2C[C@H]1C(=O)NCc1nn[nH]n1 [Example I-5, tert-Butyl N-[(1S,2S)-2-methyl-1-({2-oxo-2-[(2S)-2-[(2H-1,2,3,4-tetrazol-5-ylmethyl)carbamoyl]-2,3-dihydro-1H-indol-1-yl]ethyl}carbamoyl)butyl]carbamate] | 1000 to 10000 |  |  |  | 

More lines, now with the values ahead:

IC50 (human Granzyme B (hGzmB)) [nM] | solubility at 24 h [1, 2] [µM] | solubility at 24 h [1, 3] [µg/mL] | Solubility in aqueous PBS Buffer (1X, pH 7.4), uM [1] [uM] | Solubility in aqueous PBS Buffer (1X, pH 7.4), ug/mL [1] [ug/mL] | SMILES
100 to 1000 | > 750 | > 407 |  |  | CC[C@H](C)[C@H](NC(=O)CC(C)CC(=O)O)C(=O)NCC(=O)N1c2ccccc2C[C@H]1C(=O)NCc1nn[nH]n1 (single isomer, unassigned) [Example A17-1]
100 to 1000 |  |  | >750 | >407 | CC[C@H](C)[C@H](NC(=O)CC(C)CC(=O)O)C(=O)NCC(=O)N1c2ccccc2C[C@H]1C(=O)NCc1nn[nH]n1 (single isomer, unassigned) [Example A17-2]
< 100 |  |  | >750 | >425 | CC[C@H](C)[C@H](NC(=O)C1CC=CCC1C(=O)O)C(=O)NCC(=O)N1c2ccccc2C[C@H]1C(=O)NCc1nn[nH]n1 (single isomer, unassigned) [Example A21-2]
< 100 | > 750 | > 395 |  |  | CC[C@H](C)[C@H](NC(=O)C1CC1C(=O)O)C(=O)NCC(=O)N1c2ccccc2C[C@H]1C(=O)NCc1nn[nH]n1 (single isomer, unassigned) [Example A26-1]
< 100 |  |  | 685 | 361 | CC[C@H](C)[C@H](NC(=O)C1CC1C(=O)O)C(=O)NCC(=O)N1c2ccccc2C[C@H]1C(=O)NCc1nn[nH]n1 (single isomer, unassigned) [Example A26-2]
< 100 | > 750 | > 396 |  |  | CC[C@H](C)[C@H](NC(=O)C(C)CC(=O)O)C(=O)NCC(=O)N1c2ccccc2C[C@H]1C(=O)NCc1nn[nH]n1 (single isomer, unassigned) [Example A30-1]
< 100 |  |  | >750 | >396 | CC[C@H](C)[C@H](NC(=O)C(C)CC(=O)O)C(=O)NCC(=O)N1c2ccccc2C[C@H]1C(=O)NCc1nn[nH]n1 (single isomer, unassigned) [Example A30-2]
< 100 | 451 | 273 |  |  | CC[C@H](C)[C@H](NC(=O)C(CCC(=O)O)c1ccccc1)C(=O)NCC(=O)N1c2ccccc2C[C@H]1C(=O)NCc1nn[nH]n1 (single isomer, unassigned) [Example A54-1]
< 100 |  |  | >750 | >454 | CC[C@H](C)[C@H](NC(=O)C(CCC(=O)O)c1ccccc1)C(=O)NCC(=O)N1c2ccccc2C[C@H]1C(=O)NCc1nn[nH]n1 (single isomer, unassigned) [Example A54-2]
100 to 1000 | 144 | 77 |  |  | CC[C@H](C)[C@H](NC(=O)Cc1ccccc1)C(=O)NCC(=O)N1c2ccccc2C[C@H]1C(=O)NCc1nn[nH]n1 [Example A1, (2S)-1-{2-[(2S,3S)-3-Methyl-2-(2-Phenylacetamido)Pentanamido]Acetyl}-N-(2H-1,2,3,4-Tetrazol-5-Ylmethyl)-2,3-Dihydro-1H-Indole-2-Carboxamide]
100 to 1000 | > 150 | > 80 |  |  | CC[C@H](C)[C@H](NC(=O)Cc1ccncc1)C(=O)NCC(=O)N1c2ccccc2C[C@H]1C(=O)NCc1nn[nH]n1 [Example A2, (2S)-1-{2-[(2S,3S)-3-Methyl-2-[2-(Pyridin-4-Yl)Acetamido]Pentanamido]Acetyl}-N-(2H-1,2,3,4-Tetrazol-5-Ylmethyl)-2,3-Dihydro-1H-Indole-2-Carboxamide]
100 to 1000 | 139 | 74 |  |  | CC[C@H](C)[C@H](NC(=O)Cc1cccnc1)C(=O)NCC(=O)N1c2ccccc2C[C@H]1C(=O)NCc1nn[nH]n1 [Example A3, (2S)-1-{2-[(2S,3S)-3-Methyl-2-[2-(Pyridin-3-Yl)Acetamido]Pentanamido]Acetyl}-N-(2H-1,2,3,4-Tetrazol-5-Ylmethyl)-2,3-Dihydro-1H-Indole-2-Carboxamide]
100 to 1000 | > 150 | > 80 |  |  | CC[C@H](C)[C@H](NC(=O)Cc1ccccn1)C(=O)NCC(=O)N1c2ccccc2C[C@H]1C(=O)NCc1nn[nH]n1 [Example A4, (2S)-1-{2-[(2S,3S)-3-Methyl-2-[2-(Pyridin-2-Yl)Acetamido]Pentanamido]Acetyl}-N-(2H-1,2,3,4-Tetrazol-5-Ylmethyl)-2,3-Dihydro-1H-Indole-2-Carboxamide]
